The values below come from article PMC12362618, “Development of the First Small-Molecule Inhibitor Targeting Oncostatin M for Treatment of Breast Cancer” (Journal of Medicinal Chemistry, 2025).

In the series the test system is T47D and MCF-7 human breast cancer cells. Nature of the series: MTS cell viability assay. It counts as cell-based. As for the experimental part: Cell viability was assessed using the CellTiter 96 AQueous One Solution Cell Proliferation Assay (Promega, cat. no. G3580), following the manufacturer’s instructions. Briefly, T47D and MCF-7 human breast cancer cells were seeded in 96-well plates at a density of 10,000 cells/well in 100 μL of complete growth medium and allowed to adhere overnight. Cells were then treated with a serial dilution (100 μM to 0.1 nM) of SMI-10B, SMI-10B13, Temozolomide (positive control), or vehicle (DMSO) for 24 h. Following treatment, 20 μL of MTS reagent was added directly to each well, and plates were incubated at 37 °C in a humidified incubator with 5% CO2 and imaged after 1 h of incubation. Absorbance was measured at 490 nm by using a microplate reader. Cell viability was expressed as a percentage relative to the vehicle-treated controls, and experiments were performed in triplicate.
(In general: Formazan colour is commonly taken as a measure of viable cells.)

Take `Cn1nnc2c(C(N)=O)ncn2c1=O` [Temozolomide, reference compound]: the “Cytotoxicity / cell viability via MTS assay” value is “moderate toxicity as concentration increases”.
